The nature of data set [1]: Lozenge of oxaloacetic acid with a test substance, stability in open environment for one week. Conditions: for decomposition of oxaloacetic acid compounded with the ingredient and compressed into a lozenge: examination over a period of one week; for effective way of increasing the pH without degrading the oxaloacetic acid: pH modifier combined with oxaloacetic acid. The source says: The Applicant set out on a path of discovery to ascertain what compounds would be stable with oxaloacetic acid—not just for pH modification, but for other physical properties necessary for various delivery systems, such as color stabilization, lozenge dissolve time, lozenge friability, taste, lozenge release from the tablet mold, flow agents, and bulking agents in addition to pH modification. Preparations of oxaloacetic acid was compounded with various ingredients and compressed into a lozenge for examination over a period of one week.
A lozenge is created consisting of 100 mg oxaloacetic acid, and 100 mg of a test substance. The powders are compressed in a tablet mold and released. Each test tablet is placed on a cardboard for one week to ascertain stability in an open environment, such as an open bottle.
The procedure in Example 1 was followed, but with the following individual modifiers to oxaloacetic acid: • Calcium Carbonate (pH Modifier) • Erythitol (Taste Modifier) • Dicalcium Phosphate dihydrate (pH Modifier and lozenge binder) • Vegetable Steric Acid (Release Agent) • Ascorbyl Palmitate (Release Agent)

The conditions of data set [2]: oxaloacetic acid with anhydrous NaOH or KOH or both.
The conditions of data set [3]: Yoshikawa 1968; Cash 2013; room temperature for the sodium salt; cited from earlier work.
Data set [4] can be described thus: pH of solution created by oxaloacetic acid delivered to the mouth. It counts as physicochemical. Conditions: delivered to the mouth in powder or lozenge form. The source says: Other methods of delivery are transdermal patches, sublingual lozenges, buccal lozenges, inhalation preparations and anal or vaginal suppositories. These methods of delivery can provide higher percentages of the given oxaloacetate to the blood stream for distribution to various organs, and provide the oxaloacetate quicker than the oral route. These delivery methods face a problem with the acidity of oxaloacetic acid. As an example of this, oxaloacetic acid delivered to the mouth in powder or lozenge form creates a solution at a pH of approximately 2.3. This low pH degrades the enamel on the teeth, and provides a large challenge to continued long-term use of oxaloacetate in sublingual lozenges and buccal lozenges. The effect on the teeth is apparent after just 100 mg oxaloacetate is taken either sublingually or via buccal lozenge. The low pH also causes a painful burning sensation in the lungs if inhaled. Vaginal and anal suppositories are also uncomfortable at low pH. Transdermal patches at low pH are also uncomfortable.

“Also recorded” adds a separate entry of the source.

For the molecule `CCCCCCCCCCCCCCCC(=O)OC[C@H](O)[C@H]1OC(=O)C(O)=C1O` [Ascorbyl Palmitate], the “decomposition of oxaloacetic acid compounded with the ingredient and compressed into a lozenge” value (from here on “decomposition”) in data set [1] is “effective”. Regarding `O=C([O-])[O-].[Ca+2]` [Calcium Carbonate], in data set [1], the “decomposition” value was “effective”; the “effective way of increasing the pH without degrading the oxaloacetic acid” value is given as “effective”.

As for `O=P([O-])([O-])O.[Ca+2]` [Calcium Phosphate Dibasic], the “decomposition” value in data set [1] is “rapid decomposition”.

`O=C(O)CC(O)(CC(=O)O)C(=O)O` [Citric Acid]: the “decomposition” value in data set [1] was “rapid decomposition”. On the same count and under the same terms, as for `O.O.O=P([O-])([O-])O.[Ca+2]` [Dicalcium Phosphate dihydrate], the entry is “effective”.

As for `OC[C@@H](O)[C@@H](O)CO` [Erythitol], in data set [1], the “decomposition” value is “effective”.

Consider `[K+].[OH-]` [KOH, potassium hydroxide], for which, in data set [1], the “decomposition” value is reported as “rapid decomposition”; the “effective way of increasing the pH without degrading the oxaloacetic acid” value is recorded as “not effective”. Further, in data set [2], the “degradation of sublingual tablets after manufacture” value was “degraded within a few days”.

As for `[Mg+2].[OH-].[OH-]` [Magnesium Hydroxide], the “decomposition” value in data set [1] is listed as “rapid decomposition”.

Consider `[O]=[Mg]` [Magnesium Oxide], for which the “decomposition” value in data set [1] is reported as “rapid decomposition”. On the same count and under the same terms, as for `[Cl-].[Na+]` [NaCl], the entry is “rapid decomposition”. On the same count and under the same terms, as for `[Na+].[OH-]` [NaOH, sodium hydroxide], the entry is “rapid decomposition”.

Regarding `O=C([O-])O.[K+]` [Potassium Bicarbonate], the “decomposition” value in data set [1] is “rapid decomposition”. On the same count and under the same terms, next, `O=C([O-])CC(O)(CC(=O)[O-])C(=O)[O-].[K+].[K+].[K+]` [Potassium Citrate]: “rapid decomposition”.

`O=C([O-])O.[Na+]` [Sodium bicarbonate]: in data set [1], the “decomposition” value is “rapid decomposition”; the “effective way of increasing the pH without degrading the oxaloacetic acid” value is “not effective”. On to `OC[C@H]1O[C@@](CO)(O[C@H]2O[C@H](CO)[C@@H](O)[C@H](O)[C@H]2O)[C@@H](O)[C@@H]1O` [Table sugar], for which the “decomposition” value in data set [1] is reported as “rapid decomposition”.

As to `[O]=[Ti]=[O]` [TiO2], the “decomposition” value in data set [1] is on record as “rapid decomposition”.

`CCCCCCCCCCCCCCCCCC(=O)O` [Vegetable Steric Acid]: the “decomposition” value in data set [1] is “effective”. On the same count and under the same terms, as for `OC[C@@H](O)[C@H](O)[C@@H](O)CO` [Xylitol], the entry is “rapid decomposition; also recorded: did not work well”.

Take `O=C(O)CC(=O)C(=O)O` [oxaloacetic acid]: the stability result in data set [3] is “not stable at all”. For the same molecule, in data set [4], the pH of solution entry is listed as “approximately 2.3”. As for `O=C([O-])CC(=O)C(=O)O.[Na+]` [sodium oxaloacetate], in data set [3], the stability result is “not stable, and quickly degrades at room temperature”. As to Magnesium Stearate, in data set [1], the “decomposition” value is recorded as “rapid decomposition”. On the same count and under the same terms, as for Silicon Dioxide, the entry is “rapid decomposition”.

These data come from US11426374B2, “Modification of the pH and other physical properties of oxaloacetic acid to allow for enhanced stability and multiple delivery systems” (Terra Biological LLC, priority 2015, dated 2022).
